Assay results taken from patent US12630600B2 (MEDIMMUNE LIMITED, priority 2022, dated 2026).
pEC50: −log10 of the molar value. Read-outs that look alike come from different tables or passages of the source. Each block holds one compound with its values, some of them ahead of it. Starred links: 1 amine or outer side, 2 acyl side, 3 side chain; linkers in the order of their positions; H or OH if unused. Non-standard residues stand in square brackets, D forms with d. Residues, ends and D or L forms follow the SMILES beside them. Groups on a side chain read outwards from the residue. *: point of attachment. C20 diacid = O=C(O)CCCCCCCCCCCCCCCCCCC(=O)*; C18 diacid = O=C(O)CCCCCCCCCCCCCCCCC(=O)*; Dip = N[C@H](C(=O)O)C(c1ccccc1)c1ccccc1; γGlu = O=C(O)[C@H](CCC(=O)[*:2])N[*:1]; X3 = O=C(CN(Cc1c[nH]cn1)[*:1])[*:2]; Stearoyl = CCCCCCCCCCCCCCCCCC(=O)*; αMeF = C[C@](N)(Cc1ccccc1)C(=O)O; PEG2 = NCCOCCOCCC(=O)O; AEEA = NCCOCCOCC(=O)O; Aib = CC(C)(N)C(=O)O

Columns and labels:
[1] = biological target: T1, human GLP-1 receptor (hGLP-1R) (Homo sapiens, UniProt P43220); assay: cAMP production (HTRF) in CHO cells expressing human GLP-1 receptor; format: cell-based; settings: for % Relative Potency Ratio: % GLP-1R activity relative to GLP-1 / % GlucR activity relative to glucagon; for pEC50: read-out: hGLP-1R EC50
T1 construct: expressed in transfected cells; host or cells: CHO
T1 sequence (P43220 24-463): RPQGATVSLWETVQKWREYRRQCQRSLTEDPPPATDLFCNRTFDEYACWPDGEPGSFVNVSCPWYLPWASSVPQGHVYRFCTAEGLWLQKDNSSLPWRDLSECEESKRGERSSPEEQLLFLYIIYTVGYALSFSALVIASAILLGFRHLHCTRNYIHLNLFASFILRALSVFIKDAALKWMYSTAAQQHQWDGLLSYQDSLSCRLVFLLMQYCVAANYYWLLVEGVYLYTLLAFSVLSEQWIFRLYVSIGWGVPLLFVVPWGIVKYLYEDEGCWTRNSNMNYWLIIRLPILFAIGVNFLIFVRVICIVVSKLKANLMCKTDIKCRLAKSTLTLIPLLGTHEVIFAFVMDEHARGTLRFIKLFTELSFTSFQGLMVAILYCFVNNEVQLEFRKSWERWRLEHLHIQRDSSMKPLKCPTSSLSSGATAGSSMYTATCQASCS

[2] = biological target: T2, human glucagon receptor (hGCGR) (Homo sapiens, UniProt P47871); assay: cAMP production (HTRF) in CHO cells expressing human glucagon receptor; format: cell-based; settings: for pEC50: read-out: hGluc-R EC50
T2 construct: expressed in transfected cells; host or cells: CHO
T2 sequence (P47871 26-477): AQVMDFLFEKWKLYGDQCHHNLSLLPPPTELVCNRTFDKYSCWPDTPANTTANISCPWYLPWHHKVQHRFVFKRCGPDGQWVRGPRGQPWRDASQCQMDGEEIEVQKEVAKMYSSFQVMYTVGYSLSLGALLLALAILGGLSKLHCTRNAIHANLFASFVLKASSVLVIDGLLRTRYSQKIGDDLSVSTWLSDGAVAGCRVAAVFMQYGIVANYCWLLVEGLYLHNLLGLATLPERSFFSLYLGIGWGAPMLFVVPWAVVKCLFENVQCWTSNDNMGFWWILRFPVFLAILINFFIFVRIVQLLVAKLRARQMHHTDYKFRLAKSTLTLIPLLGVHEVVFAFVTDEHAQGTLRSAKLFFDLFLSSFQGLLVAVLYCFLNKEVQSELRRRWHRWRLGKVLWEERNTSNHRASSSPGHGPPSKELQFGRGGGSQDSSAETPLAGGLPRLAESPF
Protocol: Cells were re-suspended in assay buffer at a batch-dependent optimized concentration (typically hGLP-1R cells at 1×10^5 cells/mL, hGCGR cells at 2×10^5 cells/mL).
Cells were added to the assay plate using a multidrop dispenser and incubated at room temperature for 30 minutes before measuring the cAMP level using a cAMP dynamic 2 homogeneous time resolved Fluorescence (HTRF) kit (Cisbio Bioassays #62AM4PEJ) following the two-step protocol as per manufacturer's recommendations. In brief, anti-cAMP cryptate (donor fluorophore) and cAMP-d2 (acceptor fluorophore) were made up separately by diluting each 1 in 20 in conjugate and lysis buffer provided in the kit. Anti-cAMP cryptate was added to all wells of the assay plate, followed by cAMP-d2 added to all wells except non-specific binding (NSB) wells (to which conjugate and lysis buffer was added).
Data was transformed to % Delta F as described in the manufacturer's guidelines and analyzed by 4-parameter logistic fit to determine EC50 values.

[3] = Table 8, peptides modified at position 24, geometric mean, CHO cells, cAMP
[4] = Table 8, peptides modified at position 24, geometric mean, CHO cells

SMILES: CC[C@H](C)[C@H](NC(=O)[C@H](Cc1c[nH]c2ccccc12)NC(=O)[C@H](CCCCNC(=O)CC[C@H](NC(=O)CCCCCCCCCCCCCCCCC(=O)O)C(=O)O)NC(=O)[C@@H](NC(=O)[C@H](Cc1ccccc1)NC(=O)[C@H](CC(=O)O)NC(=O)[C@H](CCC(N)=O)NC(=O)[C@H](C)NC(=O)[C@H](C)NC(=O)[C@H](CCC(N)=O)NC(=O)[C@H](CO)NC(=O)[C@H](CC(=O)O)NC(=O)[C@H](CC(C)C)NC(=O)[C@](C)(Cc1ccccc1)NC(=O)[C@H](CCCCN)NC(=O)[C@H](CO)NC(=O)[C@@H](NC(=O)[C@H](CC(=O)O)NC(=O)[C@H](CO)NC(=O)[C@@H](NC(=O)[C@H](Cc1ccccc1)NC(=O)[C@@H](NC(=O)CNC(=O)[C@H](Cc1c[nH]cn1)NC(=O)C(C)(C)NC(=O)[C@@H](N)Cc1c[nH]cn1)[C@@H](C)O)[C@@H](C)O)C(C)C)C(C)C)C(=O)N[C@@H](C)C(=O)N[C@@H](CC(N)=O)C(=O)N[C@H](C(N)=O)[C@@H](C)O [Peptide 346]
% Relative Potency Ratio ([1]; Table 8): 0.1
EC50 ([1]; hGLP-1R EC50 (pM), Table 8, peptides modified at position 24, geometric mean, CHO cells, cAMP): 7320 pM
EC50 ([2]; hGluc-R EC50 (pM), Table 8, peptides modified at position 24, geometric mean, CHO cells): 203 pM

pEC50 ([1]; Table 7, modification at position 20, CHO cells expressing hGLP-1R, cAMP, geometric mean): 10.36
% Relative Potency Ratio ([1]; Table 7): 27.2
pEC50 ([2]; Table 7, modification at position 20, CHO cells expressing hGCGR, geometric mean): 9.23
SMILES: CC[C@H](C)[C@H](NC(=O)[C@H](Cc1c[nH]c2ccccc12)NC(=O)[C@H](CCC(N)=O)NC(=O)[C@@H](NC(=O)[C@H](Cc1ccccc1)NC(=O)[C@H](CC(=O)O)NC(=O)[C@H](CCCCNC(=O)COCCOCCNC(=O)COCCOCCNC(=O)CC[C@H](NC(=O)CCCCCCCCCCCCCCCCC(=O)O)C(=O)O)NC(=O)[C@H](C)NC(=O)[C@H](C)NC(=O)[C@H](CCCNC(=N)N)NC(=O)[C@H](CO)NC(=O)[C@H](CC(=O)O)NC(=O)[C@H](CC(C)C)NC(=O)[C@](C)(Cc1ccccc1)NC(=O)[C@H](CCCCN)NC(=O)[C@H](CO)NC(=O)[C@@H](NC(=O)[C@H](CC(=O)O)NC(=O)[C@H](CO)NC(=O)[C@@H](NC(=O)[C@](C)(Cc1ccccc1)NC(=O)[C@@H](NC(=O)CNC(=O)[C@H](CCC(N)=O)NC(=O)C(C)(C)NC(=O)[C@@H](N)Cc1c[nH]cn1)[C@@H](C)O)[C@@H](C)O)C(C)C)C(C)C)C(=O)N[C@@H](C)C(=O)N[C@@H](CC(N)=O)C(=O)N[C@H](C(N)=O)[C@@H](C)O [Peptide 204] (H-H[Aib]QGT[αMeF]TSDVSK[αMeF]LDSRAAK([AEEA-AEEA-γGlu-C18 diacid])DFVQWIANT-NH2; N-terminus assumed)

pEC50 ([1]; Table 10, peptides modified at position 13, geometric mean, CHO cells, cAMP): 11.25
% Relative Potency Ratio ([1]; Table 10): 7.6
pEC50 ([2]; Table 10, peptides modified at position 13, geometric mean, CHO cells): 10.66
SMILES: CCCCCCCCCCCCCCCCCC(=O)N[C@@H](CCC(=O)N[C@@H](CCC(=O)NCCOCCOCCC(=O)NCCOCCOCCC(=O)NCCCC[C@H](NC(=O)[C@H](CCCCN)NC(=O)[C@H](CO)NC(=O)[C@@H](NC(=O)[C@H](CC(=O)O)NC(=O)[C@H](CO)NC(=O)[C@@H](NC(=O)[C@](C)(Cc1ccccc1)NC(=O)[C@H](CO)NC(=O)CNC(=O)[C@H](CCC(N)=O)NC(=O)[C@H](CO)NC(=O)[C@@H](N)Cc1c[nH]cn1)[C@@H](C)O)C(C)C)C(=O)N[C@@H](CC(C)C)C(=O)N[C@@H](CC(=O)O)C(=O)N[C@@H](CO)C(=O)N[C@H](C(=O)N[C@@H](C)C(=O)N[C@@H](C)C(=O)N[C@@H](CCC(N)=O)C(=O)N[C@@H](CC(=O)O)C(=O)N[C@@](C)(Cc1ccccc1)C(=O)N[C@H](C(=O)N[C@@H](CCC(=O)O)C(=O)N[C@@H](Cc1c[nH]cn1)C(=O)N[C@@H](CC(C)C)C(=O)N[C@@H](C)C(=O)N[C@@H](CC(N)=O)C(=O)N[C@H](C(N)=O)[C@@H](C)O)C(C)C)C(C)(C)CCNC(=N)N)C(=O)O)C(=O)O [Peptide 404, HSQGS(αMePhe)TSDVSKK((PEG)2-(PEG)2-γE-γE-Stearoyl)13LDS(ß-dimethylArg)AAQD(αMePhe)VEHLANT-amide]

pEC50 [1, 3]: 10.14
% Relative Potency Ratio ([1]; Table 8): 1.0
pEC50 [2, 4]: 10.45
SMILES: CC[C@H](C)[C@H](NC(=O)C(C)(C)NC(=O)[C@H](CCCCNC(=O)COCCOCCNC(=O)COCCOCCNC(=O)CC[C@H](NC(=O)CC[C@H](NC(=O)CCCCCCCCCCCCCCCCC(=O)O)C(=O)O)C(=O)O)NC(=O)[C@@H](NC(=O)[C@](C)(Cc1ccccc1)NC(=O)[C@H](CC(=O)O)NC(=O)[C@H](CCC(N)=O)NC(=O)[C@H](C)NC(=O)[C@H](C)NC(=O)[C@H](CCCNC(=N)N)NC(=O)[C@H](CO)NC(=O)[C@H](CC(=O)O)NC(=O)[C@H](CC(C)C)NC(=O)[C@](C)(Cc1ccccc1)NC(=O)[C@H](CCCCN)NC(=O)[C@H](CO)NC(=O)[C@@H](NC(=O)[C@H](CC(=O)O)NC(=O)[C@H](CO)NC(=O)[C@@H](NC(=O)[C@](C)(Cc1ccccc1)NC(=O)[C@H](CO)NC(=O)CNC(=O)[C@H](Cc1c[nH]cn1)NC(=O)C(C)(C)NC(=O)[C@@H](N)Cc1c[nH]cn1)[C@@H](C)O)C(C)C)C(C)C)C(=O)N[C@@H](C)C(=O)N[C@@H](CC(N)=O)C(=O)N[C@H](C(N)=O)[C@@H](C)O [Peptide 372] (H-H[Aib]HGS[αMeF]TSDVSK[αMeF]LDSRAAQD[αMeF]VK([AEEA-AEEA-γGlu-γGlu-C18 diacid])[Aib]IANT-NH2; N-terminus assumed)

pEC50 [1, 3]: 9.06
pEC50 [2, 4]: 7.83
SMILES: CC[C@H](C)[C@H](NC(=O)[C@H](Cc1c[nH]c2ccccc12)NC(=O)[C@H](CCCCNC(=O)COCCOCCNC(=O)COCCOCCNC(=O)CC[C@H](NC(=O)CC[C@H](NC(=O)CCCCCCCCCCCCCCCCCCC(=O)O)C(=O)O)C(=O)O)NC(=O)[C@@H](NC(=O)[C@H](Cc1ccccc1)NC(=O)[C@H](CC(=O)O)NC(=O)[C@H](CCC(N)=O)NC(=O)[C@H](C)NC(=O)[C@H](C)NC(=O)[C@H](CCCNC(=N)N)NC(=O)[C@H](CO)NC(=O)[C@H](CC(=O)O)NC(=O)[C@H](CC(C)C)NC(=O)[C@](C)(Cc1ccccc1)NC(=O)[C@H](CCCCN)NC(=O)[C@H](CO)NC(=O)[C@@H](NC(=O)[C@H](CC(=O)O)NC(=O)[C@H](CO)NC(=O)[C@@H](NC(=O)[C@](C)(Cc1ccccc1)NC(=O)[C@H](CO)NC(=O)CNC(=O)[C@H](Cc1c[nH]cn1)NC(=O)[C@H](CO)NC(=O)CNCc1c[nH]cn1)[C@@H](C)O)C(C)C)C(C)C)C(=O)N[C@@H](C)C(=O)N[C@@H](CC(N)=O)C(=O)N[C@H](C(N)=O)[C@@H](C)O [Peptide 380] (H-[X3]SHGS[αMeF]TSDVSK[αMeF]LDSRAAQDFVK([AEEA-AEEA-γGlu-γGlu-C20 diacid])WIANT-NH2; N-terminus assumed)

pEC50 [1, 3]: 9.81
% Relative Potency Ratio ([1]; Table 8): 10.8
pEC50 [2, 4]: 9.07
SMILES: CC[C@H](C)[C@H](NC(=O)C(C)(C)NC(=O)[C@H](CCCCNC(=O)COCCOCCNC(=O)COCCOCCNC(=O)CC[C@H](NC(=O)CC[C@H](NC(=O)CCCCCCCCCCCCCCCCCCC(=O)O)C(=O)O)C(=O)O)NC(=O)[C@@H](NC(=O)[C@](C)(Cc1ccccc1)NC(=O)[C@H](CC(=O)O)NC(=O)[C@H](CCC(N)=O)NC(=O)[C@H](C)NC(=O)[C@H](C)NC(=O)[C@H](CCCNC(=N)N)NC(=O)[C@H](CO)NC(=O)[C@H](CC(=O)O)NC(=O)[C@H](CC(C)C)NC(=O)[C@](C)(Cc1ccccc1)NC(=O)[C@H](CCCCN)NC(=O)[C@H](CO)NC(=O)[C@@H](NC(=O)[C@H](CC(=O)O)NC(=O)[C@H](CO)NC(=O)[C@@H](NC(=O)[C@](C)(Cc1ccccc1)NC(=O)[C@H](CO)NC(=O)CNC(=O)[C@H](Cc1c[nH]cn1)NC(=O)C(C)(C)NC(=O)[C@@H](N)Cc1c[nH]cn1)[C@@H](C)O)C(C)C)C(C)C)C(=O)N[C@@H](C)C(=O)N[C@@H](CC(N)=O)C(=O)N[C@H](C(=O)NCC(=O)NCC(N)=O)[C@@H](C)O [Peptide 376] (H-H[Aib]HGS[αMeF]TSDVSK[αMeF]LDSRAAQD[αMeF]VK([AEEA-AEEA-γGlu-γGlu-C20 diacid])[Aib]IANTGG-NH2; N-terminus assumed)

pEC50 ([1]; Table 6, modification at position 17, CHO cells expressing hGLP-1R, cAMP, geometric mean): 11.67
% Relative Potency Ratio ([1]; Table 6): 17.0
pEC50 ([2]; Table 6, modification at position 17, CHO cells expressing hGCGR, geometric mean): 10.74
SMILES: CCCCCCCCCCCCCCCCCC(=O)N[C@@H](CCC(=O)N[C@@H](CCC(=O)NCCOCCOCCC(=O)NCCOCCOCCC(=O)NCCCC[C@H](NC(=O)[C@H](CO)NC(=O)[C@H](CC(=O)O)NC(=O)[C@H](CC(C)C)NC(=O)[C@@H](NC(=O)[C@H](CCCCN)NC(=O)[C@H](CO)NC(=O)[C@@H](NC(=O)[C@H](CC(=O)O)NC(=O)[C@H](CO)NC(=O)[C@@H](NC(=O)[C@](C)(Cc1ccccc1)NC(=O)[C@H](CO)NC(=O)CNC(=O)[C@H](CCC(N)=O)NC(=O)C(C)(C)NC(=O)[C@@H](N)Cc1c[nH]cn1)[C@@H](C)O)C(C)C)C(c1ccccc1)c1ccccc1)C(=O)N[C@@H](C)C(=O)N[C@@H](C)C(=O)N[C@@H](CCC(N)=O)C(=O)N[C@@H](CC(=O)O)C(=O)N[C@@](C)(Cc1ccccc1)C(=O)N[C@H](C(=O)N[C@@H](CCC(=O)O)C(=O)NC(C)(C)C(=O)N[C@@H](CC(C)C)C(=O)N[C@@H](CCC(=O)O)C(=O)N[C@@H](C)C(=O)NCC(=O)NCC(N)=O)C(C)C)C(=O)O)C(=O)O [Peptide 44] (H-H[Aib]QGS[αMeF]TSDVSK[Dip]LDSK([PEG2-PEG2-γGlu-γGlu-Stearoyl])AAQD[αMeF]VE[Aib]LEAGG-NH2; N-terminus assumed)
